From patent US9643967B2, “Pyrrolo[3,2-c]pyridine derivatives as TLR inhibitors” (TAKEDA PHARMACEUTICAL COMPANY LIMITED, priority 2013, dated 2017)
Like-named read-outs stand apart in the source and are kept apart here.

Target: T1, hTLR9 (Homo sapiens, UniProt Q9NR96)
T1 construct: expressed in transfected cells; host or cells: HEK-Blue-hTLR9 cells (HEK293)
T1 sequence (Q9NR96 26-1032): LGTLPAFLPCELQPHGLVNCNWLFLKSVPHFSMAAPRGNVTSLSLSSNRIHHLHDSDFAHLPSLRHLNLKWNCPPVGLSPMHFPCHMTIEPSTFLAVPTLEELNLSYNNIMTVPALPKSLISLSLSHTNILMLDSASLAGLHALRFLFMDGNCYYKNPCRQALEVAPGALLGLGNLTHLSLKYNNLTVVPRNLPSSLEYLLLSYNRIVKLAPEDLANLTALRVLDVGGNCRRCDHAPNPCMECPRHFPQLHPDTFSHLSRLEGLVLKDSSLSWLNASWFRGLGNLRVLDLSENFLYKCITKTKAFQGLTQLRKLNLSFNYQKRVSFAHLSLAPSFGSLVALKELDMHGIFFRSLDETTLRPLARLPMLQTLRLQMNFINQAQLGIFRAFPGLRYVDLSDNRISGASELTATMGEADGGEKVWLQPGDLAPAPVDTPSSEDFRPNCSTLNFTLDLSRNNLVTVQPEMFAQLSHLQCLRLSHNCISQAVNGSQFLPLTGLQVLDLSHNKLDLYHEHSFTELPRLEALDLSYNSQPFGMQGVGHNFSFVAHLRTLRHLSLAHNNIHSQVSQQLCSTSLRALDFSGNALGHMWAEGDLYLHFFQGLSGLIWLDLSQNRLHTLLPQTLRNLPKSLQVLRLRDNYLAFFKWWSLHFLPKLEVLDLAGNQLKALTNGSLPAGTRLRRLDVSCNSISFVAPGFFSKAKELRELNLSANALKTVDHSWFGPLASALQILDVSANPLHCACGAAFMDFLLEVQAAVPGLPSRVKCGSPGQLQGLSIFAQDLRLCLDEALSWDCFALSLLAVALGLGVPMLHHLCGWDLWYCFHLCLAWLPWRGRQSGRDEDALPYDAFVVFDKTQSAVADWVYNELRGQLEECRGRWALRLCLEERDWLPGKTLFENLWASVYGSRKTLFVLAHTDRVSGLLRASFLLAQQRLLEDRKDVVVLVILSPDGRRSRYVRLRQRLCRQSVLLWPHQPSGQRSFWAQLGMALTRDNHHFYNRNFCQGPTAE
Experiment: hTLR9 antagonism (SEAP inhibition assay) in HEK-Blue-hTLR9 (HEK293) cells, ODN-2006 stimulated
Format: cell-based
Experimental: hTLR9 Antagonism (SEAP Inhibition Assay) in HEK293 Cell Lines
The SEAP reporter gene in HEK-Blue™-hTLR9 cells is placed under the control of the IFN-b minimal promoter fused to five NF-kB and AP-1 binding sites. The stimulation with a TLR9 ligand (ODN-2006) activates NF-kB and AP-1 which induces the production of SEAP. Levels of SEAP are determined with QUANTI-Blue™ detection medium that turns purple/blue in the presence of alkaline phosphatase. Decrease in the levels of SEAP production as indicated by reduction in absorbance at 650 nm is directly co-related with the TLR9 inhibitory activity of the antagonist (NCE).
HEK-Blue™-hTLR9 cells were maintained in DMEM with 10% FBS, 1% Penicillin/Streptomycin/Amphotericin (complete growth medium) and 0.2% Normocin. For the assay, cells were dissociated by washing in 1×PBS and re-suspended in complete DMEM. Cells were seeded at a density of 20000 cells per well; (40 μl per well) in a 384 well assay plate.
5 μl of 10× antagonist (NCE) was added to the cells in triplicates for each concentration. The plate was incubated for half an hour at 37° C. with 5% CO2. 5 μl of agonist (ODN-2006) was added and the plate was incubated overnight for 18 hours at 37° C. with 5% CO2. 5 μl of supernatant was transferred to a 384 well reading plate and to this 45 μl of Quanti-Blue™ detection reagent was added. The plate was then incubated for an hour at 37° C. SEAP activity in the supernatant was indicated by change in the pink color of Quanti-Blue™ detection reagent to purple/blue and the absorbance was read at 650 nm in the end point mode.

[1] = HEK-Blue hTLR9, 1 μM, SEAP, HEK-Blue-hTLR9 cells, read-out: hTLR9 inhibitory activity (% at 1 μM)

Row | Compound | inhibition at 1 µM [1] | other results
1 | Cc1cc2[nH]c(CN3CCOCC3)cc2c(-c2ccc(C3CCN(C(C)C)CC3)cc2)n1 [Example A51, 4-[[4-[4-(1-isopropyl-4-piperidyl)phenyl]-6-methyl-1H-pyrrolo[3,2-c]pyridin-2-yl]methyl]morpholine] | 100% | –
2 | CC(C)N1CC=C(c2ccc(-c3nccc4[nH]c(CN5CCOCC5)cc34)cn2)CC1 [Example A52, 4-[[4-[6-(1-isopropyl-3,6-dihydro-2H-pyridin-4-yl)-3-pyridyl]-1H-pyrrolo[3,2-c]pyridin-2-yl]methyl]morpholine] | 84.5% | –
3 | CC(C)N1CCN(c2ccc(-c3nccc4[nH]c(CN5CCOCC5)cc34)cn2)CC1 [Example A53, 4-[[4-[6-(4-isopropylpiperazin-1-yl)-3-pyridyl]-1H-pyrrolo[3,2-c]pyridin-2-yl]methyl]morpholine] | 77% | –
4 | CC(C)N1CCC(n2cc(-c3nccc4[nH]c(CN5CCOCC5)cc34)cn2)CC1 [Example A54, 4-[[4-[1-(1-isopropyl-4-piperidyl)pyrazol-4-yl]-1H-pyrrolo[3,2-c]pyridin-2-yl]methyl]morpholine] | 95.4% | –
5 | CC(C)N1CCN(Cc2ccc(-c3nccc4[nH]c(CN5CCOCC5)cc34)cc2)CC1 [Example A55, 4-[[4-[4-[(4-isopropylpiperazin-1-yl)methyl]phenyl]-1H-pyrrolo[3,2-c]pyridin-2-yl]methyl]morpholine] | 96.5% | –
6 | CC(C)N1CCC(Oc2ccc(-c3nccc4[nH]c(CN5CCOCC5)cc34)cc2)CC1 [Example A56, 4-[[4-[4-[(1-isopropyl-4-piperidyl)oxy]phenyl]-1H-pyrrolo[3,2-c]pyridin-2-yl]methyl]morpholine] | 99.5% | –
7 | CC(C)N1CCN(c2cccc(-c3nccc4[nH]c(CN5CCOCC5)cc34)c2)CC1 [Example A57, 4-[[4-[3-(4-isopropylpiperazin-1-yl)phenyl]-1H-pyrrolo[3,2-c]pyridin-2-yl]methyl]morpholine] | 96.9% | –
8 | CN1CCN(Cc2ccc(-c3nccc4[nH]c(CN5CCOCC5)cc34)cc2)CC1 [Example A60, 4-[[4-[4-[(4-methylpiperazin-1-yl)methyl]phenyl]-1H-pyrrolo[3,2-c]pyridin-2-yl]methyl]morpholine] | 86% | –
9 | CN1CCN(c2cccc(-c3nccc4[nH]c(CN5CCOCC5)cc34)c2)CC1 [Example A61, 4-[[4-[3-(4-methylpiperazin-1-yl)phenyl]-1H-pyrrolo[3,2-c]pyridin-2-yl]methyl]morpholine] | 89.5% | –
10 | CN1CCC(Oc2ccc(-c3nccc4[nH]c(CN5CCOCC5)cc34)cc2)CC1 [Example A62, 4-[[4-[4-[(1-methyl-4-piperidyl)oxy]phenyl]-1H-pyrrolo[3,2-c]pyridin-2-yl]methyl]morpholine] | 98.2% | –
11 | CN1CCC(n2cc(-c3nccc4[nH]c(CN5CCOCC5)cc34)cn2)CC1 [Example A63, 4-[[4-[1-(1-methyl-4-piperidyl)pyrazol-4-yl]-1H-pyrrolo[3,2-c]pyridin-2-yl]methyl]morpholine] | 93.4% | –
12 | CC(C)N1CCC(c2ccc(-c3nccc4[nH]c(CN5CCOCC5)cc34)cn2)CC1 [Example A64, 4-[[4-[6-(1-isopropyl-4-piperidyl)-3-pyridyl]-1H-pyrrolo[3,2-c]pyridin-2-yl]methyl]morpholine] | 73% | –
13 | CC(C)N1CCC(c2ccc(-c3nccc4[nH]c(CN5CCOCC5)cc34)cc2)CC1 [Example A70, 4-[[4-[4-(1-isopropyl-4-piperidyl)phenyl]-1H-pyrrolo[3,2-c]pyridin-2-yl]methyl]morpholine] | 100% | –
14 | CC(C)N1CCN(c2ccc(-c3nccc4[nH]c(CN5CC(O)C5)cc34)cc2)CC1 [Example A72, 1-[[4-[4-(4-isopropylpiperazin-1-yl)phenyl]-1H-pyrrolo[3,2-c]pyridin-2-yl]methyl]azetidin-3-ol] | 100% | –
15 | CC(C)N1CCN(c2ccc(-c3nccc4[nH]c(CN5CCC[C@@H]5C(=O)O)cc34)cc2)CC1 [Example A74, (2R)-1-[[4-[4-(4-isopropylpiperazin-1-yl)phenyl]-1H-pyrrolo[3,2-c]pyridin-2-yl]methyl]pyrrolidine-2-carboxylic acid] | 89.4% | –
16 | CC(C)N1CCN(C2CCC(c3nccc4[nH]c(CN5CCOCC5)cc34)CC2)CC1 (centres unmarked) [Example A80, 4-[[4-[4-(4-isopropylpiperazin-1-yl)cyclohexyl]-1H-pyrrolo[3,2-c]pyridin-2-yl]methyl]morpholine] | – | hTLR9 inhibitory activity (% at 1 μM) (1 μM, SEAP, HEK-Blue-hTLR9 cells): 95.8%
17 | c1cc2[nH]c(CN3CCOCC3)cc2c(-c2ccc(N3CCN(C4COC4)CC3)cc2)n1 [Example A81, 4-[[4-[4-[4-(oxetan-3-yl)piperazin-1-yl]phenyl]-1H-pyrrolo[3,2-c]pyridin-2-yl]methyl]morpholine] | 64% | –
18 | CC(C)N1CCN(c2ccc(-c3nccc4[nH]c(C(=O)N5CCOCC5)cc34)cc2)CC1 [Example A82, [4-[4-(4-isopropylpiperazin-1-yl)phenyl]-1H-pyrrolo[3,2-c]pyridin-2-yl]-morpholino-methanone] | – | inhibition at 1 µM (HEK-Blue hTLR9, read-out: hTLR9 inhibitory activity (% at 1 μM)): 98%
19 | CC(C)N1CCN(c2ccc(-c3nccc4[nH]c(CCN5CCOCC5)cc34)cc2)CC1 [Example B1, 4-[2-[4-[4-(4-isopropylpiperazin-1-yl)phenyl]-1H-pyrrolo[3,2-c]pyridin-2-yl]ethyl]morpholine] | 100% | –
20 | CN1CCN(c2ccc(-c3nccc4[nH]c(CCN5CCOCC5)cc34)cc2)CC1 [Example B2, 4-[2-[4-[4-(4-methylpiperazin-1-yl)phenyl]-1H-pyrrolo[3,2-c]pyridin-2-yl]ethyl]morpholine] | 100% | –
21 | Cc1cc2[nH]c(CCN3CCOCC3)cc2c(-c2ccc(N3CCN(C(C)C)CC3)cc2)n1 [Example B3, 4-[2-[4-[4-(4-isopropylpiperazin-1-yl)phenyl]-6-methyl-1H-pyrrolo[3,2-c]pyridin-2-yl]ethyl]morpholine] | 100% | –
22 | Cc1cc2[nH]c(CCN3CCOCC3)cc2c(-c2ccc(N3CCN(C)CC3)cc2)n1 [Example B4, 4-[2-[6-methyl-4-[4-(4-methylpiperazin-1-yl)phenyl]-1H-pyrrolo[3,2-c]pyridin-2-yl]ethyl]morpholine] | 100% | –
23 | Cc1cc2[nH]c(CCN3CCCCC3)cc2c(-c2ccc(N3CCN(C(C)C)CC3)cc2)n1 [Example B5, 4-[4-(4-isopropylpiperazin-1-yl)phenyl]-6-methyl-2-[2-(1-piperidyl)ethyl]-1H-pyrrolo[3,2-c]pyridine] | 78% | –
24 | Cc1nc(-c2ccc(N3CCN(C)CC3)cc2)c2cc(CCN3CCOCC3)[nH]c2c1C [Example B7, 4-[2-[6,7-dimethyl-4-[4-(4-methylpiperazin-1-yl)phenyl]-1H-pyrrolo[3,2-c]pyridin-2-yl]ethyl]morpholine] | 81.6% | –
25 | CCN1CCN(c2ccc(-c3nc(C)c(C)c4[nH]c(CCN5CCOCC5)cc34)cc2)CC1 [Example B8, 4-[2-[4-[4-(4-ethylpiperazin-1-yl)phenyl]-6,7-dimethyl-1H-pyrrolo[3,2-c]pyridin-2-yl]ethyl]morpholine] | 93.7% | –
26 | Cc1nc(-c2ccc(N3CCN(C(C)C)CC3)cc2)c2cc(CCN3CCCC3)[nH]c2c1C [Example B10, 4-[4-(4-isopropylpiperazin-1-yl)phenyl]-6,7-dimethyl-2-(2-pyrrolidin-1-ylethyl)-1H-pyrrolo[3,2-c]pyridine] | 93.1% | –
